Values quoted from earlier work, collected in paper PMC6095934, “Impact of rifampicin-inhibitable transport on the liver distribution and tissue kinetics of erlotinib assessed with PET imaging in rats” (EJNMMI Research, 2018).

Tests used:
[1] = NSCLC patients, 150 mg erlotinib once daily
[2] = test system: human OATP2B1; settings: in vitro, transfected cells
[3] = test system: MRP2 (ABCC2); set-up: method as in PMID 18723475
[4] = test system: OAT1; set-up: method as in PMID 21088257
[5] = test system: OAT2; set-up: method as in PMID 21088257
[6] = test system: OAT3; set-up: method as in PMID 21088257
[7] = test system: OCT2; set-up: method as in PMID 21088257, PMID 26976869
[8] = target: rOATP1B2
[9] = target: rOATP1A1
[10] = test system: organic anion transporter 2 (OAT2, SLC22A7); settings: in vitro
[11] = test system: MRP2 (ABCC2); set-up: method as in PMID 23440558; settings: canalicular side of hepatocytes
[12] = test system: OAT1
[13] = test system: OAT3
[14] = test system: OCT2; set-up: method as in PMID 21088257, PMID 26976869; remark: listed apart in the source
[15] = test system: OATP4C1; set-up: method as in PMID 28550055
[16] = test system: human OATP1B1
[17] = test system: human OATP1B3
[18] = test system: human OATP2B1
[19] = test system: organic cation transporter 1 (OCT1, SLC22A1)

Structure (SMILES)	interpatient variability in area under the curve (AUC) [1]	interpatient variability in trough plasma concentrations [1]	transport by human OATP2B1 [2]	substrate of MRP2 [3]	transport by OAT1 [4]	transport by OAT2 [5]	substrate of OAT3 [6]	substrate of OCT2 [7]	Ki [8]	Ki [9]	inhibition of OAT2 [10]	inhibition of MRP2 [11]	inhibition of OAT1 [12]	inhibition of OAT3 [13]	inhibition of OCT2 [14]	inhibition of OATP4C1 [15]	IC50 [16]	IC50 [17]	IC50 [18]	Ki [19]
C#Cc1cccc(Nc2ncnc3cc(OCCOC)c(OCCOC)cc23)c1 [erlotinib, Erlotinib]	51%	64%	specifically transported	not a substrate	neither transported	neither transported	substrate	substrate	–	–	–	–	–	–	–	–	–	–	–	–
CO[C@H]1/C=C/O[C@@]2(C)Oc3c(C)c(O)c4c(O)c(c(/C=N/N5CCN(C)CC5)c(O)c4c3C2=O)NC(=O)/C(C)=C\C=C\[C@H](C)[C@H](O)[C@@H](C)[C@@H](O)[C@@H](C)[C@H](OC(C)=O)[C@@H]1C [rifampicin, Rifampicin]	–	–	–	–	–	–	–	–	0.79 µM	18 µM	inhibited neither	potent inhibitor	inhibitor	not	not inhibited	not an inhibitor	1.9 ± 0.16 µM	6.4 ± 0.5 µM	91 ± 14.6 µM	> 100 µM
